Patent US7759358B2, “Oral bioavailable prodrugs” (priority 2003, dated 2010)
“Also recorded” adds a separate entry of the source.

Key:
[1] = oral therapy; cited from earlier work
[2] = In vitro diffusion studies with human skin (flow-through diffusion cells); assay type: in vitro ADME; settings: for in vitro NTX (equivalent) flux across human skin, NTX-NTX compared with NTX: FIG. 2, mean of nine cells NTX and twelve cells NTX-NTX, three donors, paired Student's t-test p<0.05
Procedure: In vitro diffusion studies were conducted using human skin harvested during abdominal reduction surgery. Skin sections were obtained by using a Padgett dermatome set to 250 microns, and then were frozen at −20° C. until the time of the experiment. A PermeGear flow-through (In-Line, Riegelsville, Pa.) diffusion cell system was used for the diffusion studies. Data was collected utilizing three different specimens of frozen human tissue from three different donors. The human tissues had been frozen from two to five months. Three diffusion cells were used for NTX and four cells were used for NTX-NTX. A receiver buffer of HEPES-buffered Hank's balanced salts solution with gentamicin at pH of 7.3-7.4 was collected at a flow rate of 1.1 mL/h. A saturated NTX or NTX-NTX solution in light mineral oil was applied to the skin cells. Each cell received 0.25 mL of the respective drug solution. Samples were collected in six hour increments for 48 hours. After a six hour sample was obtained, they were stored at 4° C. until solid phase extraction processing. Skin cells were kept at 32° C. with a circulating water bath set to 39° C.
The diffusion data were plotted as the cumulative quantity of NTX equivalents collected in the receiver cell as a function of time. The flux value for a given experiment was computed from Fick's First Law of diffusion:
where Js is the steady-state flux, M is the cumulative amount of intact drug permeating the skin, A is the area of the cell (0.95 cm^2), Kp is the effective permeability coefficient in cm/h, and ΔC is the difference in concentration of NTX or NTX-NTX in the donor and receiver. Buildup in the receiver cell was kept to a minimum throughout the studies.
[…] in the skin and appeared as NTX in the receiver collection. The total amounts of NTX that absorbed through the skin and into the receiver from NTX and NTX-NTX were used in the data analysis. […] Data represent the mean±standard deviation of the nine skin cells with NTX and the twelve skin cells with NTX-NTX. Three individual human donor skin tissues were used. Due to the high variability of human skin, NTX was used with each experiment as a control. The results are reported in NTX nmol equivalents because the NTX-NTX duplex contains two molecules of NTX. Approximately 4% of the NTX flux was from the intact NTX-NTX prodrug, and 96% was NTX originating from the hydrolysis of NTX-NTX.
The data represents the mean±standard deviation of the nine cells with NTX and the twelve cells of NTX-NTX. Three individual human donor skin tissues were used.

[3] = Drug concentration in the skin after the 48 hour diffusion study
[4] = saturated solution in light mineral oil, human skin, 32° C., 48 hours, receiver collection

O=C1CC[C@@]2(O)[C@H]3Cc4ccc(O)c5c4[C@@]2(CCN3CC2CC2)[C@H]1O5 [NTX, Naltrexone]
hepatotoxicity [1]: dose-related hepatocellular injury

O=C(Oc1ccc2c3c1OC1C(=O)CC[C@@]4(O)[C@@H](C2)N(CC2CC2)CC[C@]314)Oc1ccc2c3c1OC1C(=O)CC[C@@]4(O)[C@@H](C2)N(CC2CC2)CC[C@]314 (stereo partly shown) [NTX-NTX, 3,3′-Di-(N-cyclopropylmethyl-4,5-epoxy-14-hydroxy-morphinan-6-one-3-yl) Carbonate]
in vitro NTX (equivalent) flux across human skin, NTX-NTX compared with NTX [2]: significant difference between the means; also recorded: significant increase in NTX equivalent flux
in vitro NTX (equivalent) flux across human skin, NTX-NTX compared with NTX ([2]; listed as duplex prodrug of NTX): unexpected increase of NTX maximum flux rate
share of the NTX flux that was NTX originating from the hydrolysis of NTX-NTX [2, 4]: 96%
share of the NTX flux that was intact NTX-NTX prodrug [2, 4]: Approximately 4%
total NTX equivalent skin concentration, NTX-NTX-treated skin versus NTX-treated skin ([3]; after 48 hour diffusion study, FIG. 3): No significant difference
share of the drug extracted from the NTX-NTX-treated skin that was NTX (bioconversion) ([3]; end of the 48 hour study, human skin): 66%
